Results: patent publication US20080039408A1, “Use of Oxypurinol as an Inhibitor of Anti-Neoplastic Agent-Induced Cardiotoxicity” (priority 2004, published 2008)
Counter-ions that a name gives are not always drawn.

Assays:
xanthine oxidase = xanthine oxidase (Homo sapiens, UniProt P47989); conditions: cited from earlier work
laboratory animals = conditions: all laboratory animals tested; cited from earlier work
patients = conditions: 4-15 years after completion of chemotherapy; cited from earlier work

xanthine oxidase, sequence (P47989 whole entry, species assumed): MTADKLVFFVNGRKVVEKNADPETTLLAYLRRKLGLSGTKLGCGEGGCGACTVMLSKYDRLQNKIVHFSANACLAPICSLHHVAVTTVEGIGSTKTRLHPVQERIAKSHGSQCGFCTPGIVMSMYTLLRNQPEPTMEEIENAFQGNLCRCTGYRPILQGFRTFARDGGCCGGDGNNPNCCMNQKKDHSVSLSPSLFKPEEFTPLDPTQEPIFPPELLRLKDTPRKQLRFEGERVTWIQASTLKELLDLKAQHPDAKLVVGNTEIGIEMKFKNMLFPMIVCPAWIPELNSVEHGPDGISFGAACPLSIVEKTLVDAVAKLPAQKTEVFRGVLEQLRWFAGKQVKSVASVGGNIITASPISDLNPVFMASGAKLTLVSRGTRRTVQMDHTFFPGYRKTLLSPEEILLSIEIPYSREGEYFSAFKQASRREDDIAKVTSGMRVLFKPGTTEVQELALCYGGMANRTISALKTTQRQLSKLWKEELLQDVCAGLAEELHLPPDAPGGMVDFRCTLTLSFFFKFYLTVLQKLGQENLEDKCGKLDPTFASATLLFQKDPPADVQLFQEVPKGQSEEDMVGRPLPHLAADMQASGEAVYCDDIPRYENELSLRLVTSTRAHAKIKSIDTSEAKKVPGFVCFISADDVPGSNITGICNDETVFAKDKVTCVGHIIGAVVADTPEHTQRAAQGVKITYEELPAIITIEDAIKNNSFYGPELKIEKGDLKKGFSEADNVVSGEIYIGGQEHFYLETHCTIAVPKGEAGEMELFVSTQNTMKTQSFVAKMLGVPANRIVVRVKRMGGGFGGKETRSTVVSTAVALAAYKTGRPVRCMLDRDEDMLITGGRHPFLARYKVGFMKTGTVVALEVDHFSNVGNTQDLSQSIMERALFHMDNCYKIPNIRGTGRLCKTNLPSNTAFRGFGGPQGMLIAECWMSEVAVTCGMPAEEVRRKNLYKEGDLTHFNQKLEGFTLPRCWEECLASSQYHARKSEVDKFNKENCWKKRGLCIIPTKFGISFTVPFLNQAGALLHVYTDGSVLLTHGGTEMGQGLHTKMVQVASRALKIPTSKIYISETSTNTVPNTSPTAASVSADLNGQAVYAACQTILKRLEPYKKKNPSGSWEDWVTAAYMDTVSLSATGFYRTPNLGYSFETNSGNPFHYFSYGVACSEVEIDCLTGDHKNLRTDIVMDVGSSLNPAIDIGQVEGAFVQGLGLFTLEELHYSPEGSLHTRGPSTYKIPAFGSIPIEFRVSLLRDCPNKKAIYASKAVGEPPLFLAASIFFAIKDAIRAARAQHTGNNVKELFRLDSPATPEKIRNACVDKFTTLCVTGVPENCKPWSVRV
Method for Female CD1 mice: Female CD1 mice, weighing 20-22 g, were obtained from Charles River with implanted jugular catheters. Prior to induction of doxorubicin cardiotoxicity, the animals were randomly divided into 2 groups: • Group 1: Treatment with Oxypurinol (n=15), 26 mg/dl in the drinking water, start 3 days prior to doxorubicin dose and continue to sacrifice. • Group 2: Treatment with Vehicle (Saline) (n=10), start 3 days prior to doxorubicin dose and continue to sacrifice.
For induction of doxorubicin cardiotoxicity, doxorubicin, dissolved in saline, was injected by IV through the jugular catheter twice a week (Monday and Thursday) ten times at dose 4 mg/kg/day. Between doses 4 and 5 there was a two weeks hiatus to allow recovery of bone marrow suppression.
Seventeen mice were included in the vehicle Group 2. Two mice had jugular catheters that were nonoperable and excluded at the outset. Fifteen mice were included in the drug Group 1.
Seven surviving vehicle Group 2 (control) animals were sacrificed and 11 surviving drug Group 1 mice were sacrificed.

Structure (SMILES): Oc1ncnc2[nH]ncc12 [allopurinol, 1,5-dihydro4H-pyrazolol[3,4-d}pyrimidin-4-one monosodium salt, reference compound]
- immediate inhibition of superoxide radical production (xanthine oxidase): very little immediate inhibition

Structure (SMILES): C[C@@H](CN1CC(=O)NC(=O)C1)N1CC(=O)NC(=O)C1 [dexrazoxane]
- chronic cardiotoxicity in laboratory animals (laboratory animals): prevents chronic cardiotoxicity

Structure (SMILES): COc1cccc2c1C(=O)c1c(O)c3c(c(O)c1C2=O)C[C@@](O)(C(=O)CO)C[C@@H]3O[C@H]1C[C@H](N)[C@H](O)[C@H](C)O1 [doxorubicin, 14-hydroxydaunomycin]
- late onset chronic cardiac events, share of patients (patients): 18-65%

Structure (SMILES): O=c1[nH]c(=O)c2c[nH]nc2[nH]1 [oxypurinol]
- cellular necrosis score, difference vs vehicle (Female CD1 mice; histology of surviving mice sacrificed prior to dose 4 of doxorubicin): not statistically significant
- mean cellular swelling score (Female CD1 mice; histology of surviving mice sacrificed prior to dose 4 of doxorubicin, 11 mice, p=0.004 vs vehicle): 1.8±0.4
- deaths following 3 doses of doxorubicin (Female CD1 mice; oxypurinol 26 mg/dl in drinking water from 3 days before doxorubicin, doxorubicin 4 mg/kg/day IV twice a week, 15 mice in group): 3 deaths
- mortality vs vehicle group (Female CD1 mice; oxypurinol Group 1 vs vehicle Group 2, doxorubicin-treated mice): highly significant decrease in mortality
- immediate inhibition of superoxide radical production (xanthine oxidase): produces immediate inhibition
